From patent publication US20100273652A1 (priority 2009, published 2010)

What was measured:
Assay type in all cases: cell-based
[1] = tested on: fumonisin FB1 production of Fusarium proliferatum; test: Inhibition of fumonisin FB1 production of Fusarium proliferatum; settings: 5 days, 20° C., vs control without compound
[2] = tested on: Fusarium proliferatum; test: Growth inhibition of Fusarium proliferatum (OD620); settings: OD620 at start and after 5 days
[3] = tested on: DON/Acetyl-DON production of Fusarium graminearum
[4] = tested on: Fusarium graminearum

| SMILES | % inhibition at 50 μM FB1 [1] | % inhibition at 50 μM Fusarium proliferatum (growth) [2] | % inhibition at 50 μM DON/AcDON [3] | % inhibition at 50 μM Fusarium graminearum (growth) [4] |
| --- | --- | --- | --- | --- |
| Nc1cc(-c2[nH]c3cccnc3c2-c2ccc(F)cc2)ccn1 [Example 4] | 45% | 31% |  |  |
| C=C=Cn1c(-c2ccncc2)c(-c2ccc(F)cc2)c2ncccc21 [Example 15] |  | 37% | 44% | 33% |
